# Measured values reported in ChEMBL document CHEMBL5335795, “Development of potent isoflavone-based formyl peptide receptor 1 (FPR1) antagonists and their effects in gastric cancer cell models” (Eur J Med Chem, 2023).
# Calls of active or inactive are those of the source. The rule behind the calls is not given here.
# Experiments:
# fMet-Leu-Phe receptor [1] = target: T1, fMet-Leu-Phe receptor (Homo sapiens, UniProt P21462); assay: Antagonist activity against human FPR1 expressed in human HL-60 cells assessed as inhibition of fMLF-induced calcium mobilization preincubated for 30 mins followed by fMLF addition and measured every 5s for 240s by Fluo4AM dye based scanning fluorimetric analysis; format: functional, cell-based
# T1 sequence (P21462 whole entry): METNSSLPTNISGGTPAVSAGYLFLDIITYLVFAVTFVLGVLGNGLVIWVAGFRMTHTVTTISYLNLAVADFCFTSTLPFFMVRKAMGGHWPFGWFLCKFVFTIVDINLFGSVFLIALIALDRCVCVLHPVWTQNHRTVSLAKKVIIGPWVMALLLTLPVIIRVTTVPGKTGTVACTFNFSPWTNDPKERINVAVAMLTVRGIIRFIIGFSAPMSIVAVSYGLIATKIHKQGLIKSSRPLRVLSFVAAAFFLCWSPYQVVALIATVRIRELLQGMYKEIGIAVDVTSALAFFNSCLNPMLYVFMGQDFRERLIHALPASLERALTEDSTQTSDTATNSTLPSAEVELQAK
# fMet-Leu-Phe receptor [2] = target: T1, fMet-Leu-Phe receptor; assay: Antagonist activity against human FPR1 expressed in human HL-60 cells assessed as inhibition of fMLF-induced calcium mobilization preincubated for 10 mins followed by fMLF addition and measured every 5s for 240s by Fluo4AM dye based scanning fluorimetric analysis; format: functional, cell-based
# [3] = target: T2, N-formyl peptide receptor 2 (Homo sapiens) (UniProt P25090); assay: Antagonist activity against human FPR2 expressed in human HL-60 cells assessed as inhibition of WKYMVM-induced calcium mobilization preincubated for 10 mins followed by WKYMVM addition and measured every 5s for 240s by Fluo4AM dye based scanning fluorimetric analysis; format: functional, cell-based; details: time 840.0 sec
# T2 sequence (whole entry): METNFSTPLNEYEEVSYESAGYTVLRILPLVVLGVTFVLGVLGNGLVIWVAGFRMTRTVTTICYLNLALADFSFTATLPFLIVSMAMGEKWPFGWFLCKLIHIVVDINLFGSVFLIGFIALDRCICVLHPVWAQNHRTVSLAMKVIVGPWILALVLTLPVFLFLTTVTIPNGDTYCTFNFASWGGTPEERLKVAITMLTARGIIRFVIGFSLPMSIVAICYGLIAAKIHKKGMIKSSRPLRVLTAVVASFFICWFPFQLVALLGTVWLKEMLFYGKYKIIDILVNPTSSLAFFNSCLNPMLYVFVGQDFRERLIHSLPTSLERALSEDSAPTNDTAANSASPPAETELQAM
# [4] = Metabolic stability of the compound in rat liver microsomes assessed as parent compound remaining at 10 uM preincubated for 10 mins followed by NADPH addition and measured after 30 mins by LC-MS analysis; format: ADME, Microsome; details: time 40 min, read-out: Stability
# NCI-N87 [5] = assay: Induction of apoptosis in human NCI-N87 cells assessed as viable cells at 5 uM measured after 48 hrs in presence of FPR1 antagonist, fMLF by Muse Annexin V cytofluorimetric analysis (reference value: […]%); format: functional; details: read-out: Activity
# AGS [6] = assay: Induction of apoptosis in human AGS cells assessed as viable cells at 5 uM measured after 48 hrs by Muse Annexin V cytofluorimetric analysis (reference value: 85.9%); format: functional; details: read-out: Activity
# AGS [7] = assay: Induction of apoptosis in human AGS cells assessed as viable cells at 5 uM measured after 48 hrs in presence of FPR1 antagonist, fMLF by Muse Annexin V cytofluorimetric analysis (reference value: 87.1%); format: functional; details: read-out: Activity
# NCI-N87 [8] = assay: Induction of apoptosis in human NCI-N87 cells assessed as viable cells at 5 uM measured after 48 hrs by Muse Annexin V cytofluorimetric analysis (reference value: 69.9%); format: functional; details: read-out: Activity
IC50 (fMet-Leu-Phe receptor [1]) [µM],inhibition [3],SMILES,further results
,inactive,CCCCCc1cc2c(=O)c(-c3ccccc3OC)c(C)oc2cc1OC(C)=O,
,inactive,CCCc1cc2c(=O)c(-c3cccc(OC)c3)c(C)oc2cc1OC(C)=O,
,inactive,CCCCc1cc2c(=O)c(-c3ccccc3OC)c(C)oc2cc1OC(C)=O,

# More lines, now with the values behind:
SMILES,IC50 (fMet-Leu-Phe receptor [1]) [µM],inhibition [3],further results
Cc1oc2cc(OC(=O)c3ccco3)ccc2c(=O)c1-c1nc2ccccc2n1C,3.1,,
CCCCCCc1cc2c(=O)c(-c3ccccc3OC)c(C)oc2cc1OC(=O)N(C)C,,inactive,IC50 (fMet-Leu-Phe receptor [2]): Not Active
CCCCCCC(=O)Oc1cc2oc(C)c(-c3cccc(OC)c3)c(=O)c2cc1C,,inactive,
CCCCCCC(=O)Oc1cc2oc(C)c(-c3ccccc3OC)c(=O)c2cc1C,,,"remaining at 0.5 h, 10 µM [4]: 0%"
CCCc1cc2c(=O)c(-c3ccccc3OC)c(C)oc2cc1OC(=O)N(C)C,,inactive,
CCCCCCc1cc2c(=O)c(-c3ccccc3OC)c(C)oc2cc1OC(C)=O,,,"viability at 5 µM (NCI-N87 [5]): 45.5%; viability at 5 µM (AGS [6]): 52%; viability at 5 µM (AGS [7]): 46.9%; remaining at 0.5 h, 10 µM [4]: 0%; viability at 5 µM (NCI-N87 [8]): 45.1%"
CCCCCCc1cc2c(=O)c(-c3cccc(OC)c3)c(C(F)(F)F)oc2cc1OC(C)=O,,inactive,
CCc1cc2c(=O)c(-c3nc4ccccc4n3C)c(C)oc2cc1OC(C)=O,1.4,,
COc1ccccc1-c1c(C)oc2cc(OC(=O)c3ccco3)ccc2c1=O,1.9,,
COc1ccccc1-c1c(C(F)(F)F)oc2cc(OC(=O)c3ccco3)ccc2c1=O,0.44,,
CCCCCCc1cc2c(=O)c(-c3ccccc3OC)c(C(F)(F)F)oc2cc1OC(C)=O,,,"remaining at 0.5 h, 10 µM [4]: 0%"
CCCCCCc1cc2c(=O)c(-c3nc4ccccc4n3C)c(C)oc2cc1OC(C)=O,0.31,,
